From publication PMC5048153 (Scientific Reports, 2016)
Where two headings read alike, the source gives them in different places.

Assays:
[1] = tested on: corticosterone-injured PC12 cells; assay: Intracellular calcium ion concentration analysis (Fura-2 AM); assay type: cell-based, rat; conditions: 200 µM corticosterone and 5 µM drug
Protocol: The detailed procedures were performed according to the reported literatures. In brief, calcium ion concentration was measured by Fura-2 AM (Thermo Scientific). PC12 cells were treated with compound 6a-1 for 48 hours. Then cells were detached with 0.25% trypsin and centrifuged at 1000 r/min for 5 minutes. The supernatant was removed and the cells were stained with Fura-2 AM according to the manufacturer’s instructions. Fluorescence intensity of labeled cells was photographed for 25 random sights each group using Thermo Scientific Array Scan Infinity.

[2] = tested on: corticosterone injured PC12 cells; assay: Intracellular GSH level; assay type: cell-based, rat; conditions: 200 μM corticosterone and 5 μM drug; vehicle-treated PC12 cells = 100%
Protocol: The GSH level was measured by reference of literatures’ methods[55][56] with appropriate revision. […] After being incubated on ice for 10 min, the lysate was centrifuged at 10 000 rpm for 10 min. […] The mixture was centrifuged at 3000 × g for 10 min at 4 °C, and then 200 μL of the resulting supernatant was mixed with 1 mL of phosphate buffer (100 mM, pH 8.0) and 50 μL of 5, 5-dithiobis-2-nitrobenzoic acid (DTNB).

HEK293 cells = assay: Cytotoxicity on HEK293 cells (MTT); assay type: cell-based, human; conditions: Homo sapiens, HEK293, 100μM, after treatment; read-out: IR (inhibitory rate) HEK293
How it was run: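 HEK293 human embryonic kidney cells were plated in 96-well plates at 4 × 10^3 cells per well and grown in 1640 or DMEM medium containing 10% fetal bovine serum, penicillin (100 unit/ml) and streptomycin (100 μg/ml) for 24 h at 5% CO2 in a humidified incubator. Compound cytotoxicity was then determined using the MTT method.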

rat hippocampus = assay: BDNF, VEGF and IGF-1 level in vivo (ELISA); conditions: 21-day treatment, i.p. 40 mg/kg, vs vehicle-treated group
Protocol: The detailed procedures were performed according to the reported literatures.
SD rats were killed by decapitation and hippocampi were dissected out and stored at −80 °C until use. Tissue samples were homogenized at 4 °C in Promega lysis buffer for ELISA. Samples were then sonicated and lysates were cleared by centrifugation at 4 °C, 15 000 g. Protein concentrations were determined according to the Bradford assay using bovine serum albumin as standard. Quantifications of VEGF and IGF-1 proteins were measured with Quantikine M mouse VEGF and IGF-1enzyme immunoassay kits and BDNF protein with a mouse ELISA kit.

SD rats [3] = assay: Forced swim test; assay type: in vivo, rat; conditions: ig. 32 mg/kg/day, days 2–15
Protocol: The detailed procedures were performed according to our previous studies. Briefly, each SD rat was placed in a vertical Plexiglas cylinder (height 50 cm; diameter 20 cm) containing 18 cm height of water at 25 ± 2 °C and was forced to swim individually for 15 min on1st day. From 2nd day to 15th day, the rats were intragastrically administered compound 6a-1 or control drugs at dosage of 32 mg/kg/day. On the 2nd day and 15th day, 30 minutes after drug treatment, each rat was placed again into water and forced to swim for 6 min. The rat behavior was recorded by a video camera placed directly facing cylinders. The duration of immobility during the last 4 minutes was analyzed by Xeye Animal behavior analysis system (Xeye Aba V3.2). The rat was considered as immobile when its moving speed was less than 20 mm/s. The dosage of is 32 mg/kg every day. The water in the cylinder was changed each trial. After each exposure, animals were partially dried with a towel and returned to their home cages. All tests were performed in a quiet room.

L02 cells = assay: Cytotoxicity on L02 cells (MTT); assay type: cell-based, human; conditions: Homo sapiens, L02, 100μM, after treatment; read-out: IR (inhibitory rate) L02
How it was run: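 Human normal hepatic L02 cells were plated in 96-well plates at 4 × 10^3 cells per well and grown for 24 h in 1640 or DMEM medium containing 10% fetal bovine serum, penicillin (100 unit/ml) and streptomycin (100 μg/ml), in a humidified 5% CO2 incubator. Cytotoxicity was then assessed using the MTT method.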

C57 mice = assay: Acute toxicity evaluation with H&E histology; assay type: in vivo, mouse
Protocol: Ten mice of each group were sacrificed on the 7th day, their heart, liver, spleen, lung and kidney were harvested and H&E histological staining was performed. Then the stained tissues were observed by two pathologists in a blinded manner.

[4] = PAMPA-BBB permeation assay; assay type: in vitro ADME; conditions: for Papp at 18 h, 100 μg/mL: Pe ± SD (n = 3), pH 7.4
Protocol: Parallel artificial membrane permeation assay (PAMPA) was performed according to the literature[44] with minor modification. The PVDF (Poly(vinylidene fluoride)) membrane of the donor plate was coated with PBL (Polar Brain Lipid, Avanti, USA) in dodecane (4 μL of 20 mg/mL PBL in dodecane) and the acceptor well was filled with 350 μL of PBS/EtOH (70/30, v/v, pH 7.4) buffer (VD). The tested compound was dissolved in DMSO and then diluted with PBS/EtOH (70/30, v/v, pH 7.4) buffer to reach the concentration of 100 μg/mL in the donor well.
200 μL of the donor solution was added to the donor wells (VA) and the donor filter plate was carefully put on the acceptor plate so that the coated membrane contacted both donor solution and acceptor buffer. Test compound diffused from the donor well through the lipid membrane (area = 0.28 cm^2) to the acceptor well. The concentration of the drug in both donor and the acceptor wells was assessed after 18 hours of incubation at room temperature in triplicate using Varioskan Flash Multimode Reader (Thermo Scientific) at the maximum absorption wavelength of tested compound. Concentration of the compound was calculated from the standard curve and expressed as the permeability (Pe) according to Equation (2):

H9C2 cells = assay: Cytotoxicity on H9C2 cells (MTT); assay type: cell-based; conditions: Rattus norvegicus, 48 h
Protocol: Human normal hepatic L02 cells, human embryonic kidney cell line 293 cells (HEK293) and Rattus myoblast cell line H9C2 cells were respectively seeded in 96-well plates at a density of 4 × 10^3 cells per well and cultured in the 1640 or DMEM medium, with the supplement of 10% fetal bovine serum, penicillin (100 unit/ml), streptomycin (100 μg/ml) in a humidified incubator with 5% CO2 for 24 h. After adherence, L02, HEK293 and H9C2 cells were exposed to different compounds for another 48 h. The cytotoxicities of the compounds were evaluated by MTT method.

SD rats [5] = assay: Open field locomotor activity; assay type: in vivo, rat; conditions: ig. 32 mg/kg/day, days 2–15, vs untreated rats
Protocol: The detailed procedures were performed according to our previous studies. In brief, each SD rat was placed at the center of the open field (50 × 50 cm^2 chamber, 50-cm-high walls, with a 25 cm^2 area in the middle of floor defined as the central square) for 6 min in a quiet room. The animals were gently placed in the center of the platform and were allowed to explore the surroundings. A camera was installed above the center of the field. Immediately after a rat was placed at the center in the open field, the movements and position of the animals were recorded and registered automatically by computerized system. Next test was performed after cleaning the chamber. The traveled tracks of rats were recorded for 6 minutes and the videos of the last 4 minutes were analyzed also by Xeye Animal behavior analysis system.

[6] = tested on: corticosterone injured PC12 cells; assay: Intracellular ROS level (DCF-DA); assay type: cell-based, rat; conditions: 200 μM corticosterone and 5 μM drug; vehicle-treated PC12 cells = 100%
Protocol: In brief, PC12 cells were washed with D-Hanks after drug treatment. Then cells were incubated with 2′, 7′-dichloro-fluorescein diacetate (DCF-DA, 20 μM) for 30 min at 37 °C in darkness.

5-HT2C receptor = target: T1, 5-HT2C receptor (Homo sapiens, UniProt P28335); assay: FLIPR assay for 5-HT2C antagonism; assay type: cell-based; conditions: for inhibition at 100 µM: read-out: Inhibition 5-HT2C
T1 sequence (P28335 33-458): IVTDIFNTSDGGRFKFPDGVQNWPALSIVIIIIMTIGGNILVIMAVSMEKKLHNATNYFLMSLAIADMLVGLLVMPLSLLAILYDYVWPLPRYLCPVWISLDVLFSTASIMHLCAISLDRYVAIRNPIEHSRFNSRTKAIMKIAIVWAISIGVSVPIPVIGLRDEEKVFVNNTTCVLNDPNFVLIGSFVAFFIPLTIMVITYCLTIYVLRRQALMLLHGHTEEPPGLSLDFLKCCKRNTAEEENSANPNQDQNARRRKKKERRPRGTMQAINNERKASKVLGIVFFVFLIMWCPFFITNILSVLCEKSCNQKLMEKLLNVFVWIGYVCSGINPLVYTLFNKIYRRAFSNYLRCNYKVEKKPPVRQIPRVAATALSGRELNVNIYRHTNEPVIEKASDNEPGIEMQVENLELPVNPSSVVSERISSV
Protocol: Seed cells at the density of 10 K cell/well, 37 °C, 5% CO2 incubate for 16–24 hours, then loading cells with 30 ul of Calcium 5 and 37 °C, 5% CO2 incubate for 1 hour. After transfer compound to compound plate with 30 ul Assay Buffer by Echo, add 15 ul/well of compound, incubate for 10 mins.

Question: With `COc1ccc2cccc(CCNC(C)=O)c2c1` [Agomelatine, reference compound] as the molecule, how does the “fluorescence intensity of free intracellular calcium ion” value [1] read?
Answer: The value was “weaker fluorescence intensity than corticosterone-injured PC12 cells”.

Question: What about the GSH level [2] of the same molecule?
Answer: The GSH level was 93.4%.

Question: What about the inhibition at 100 µM (HEK293 cells) of the same molecule?
Answer: The inhibition at 100 µM was 47.5%.

Question: And the “hippocampal IGF-1 level” value (rat hippocampus)?
Answer: The value was “neither compound 6a-1 nor Agomelatine exerted any influence”.

Question: What about the “hippocampal VEGF level” value (rat hippocampus) of the same molecule?
Answer: Its value is “neither compound 6a-1 nor Agomelatine exerted any influence”.

Question: What about the “mean immobility time reduced compared to the model group” value (SD rats [3]) of the same molecule?
Answer: The value was 8.4%.

Question: What about the inhibition at 100 µM (L02 cells) of the same molecule?
Answer: The inhibition at 100 µM was 41.8%.

Question: And the “heart histology (H&E)” value (C57 mice; 140 mg/kg/day, 7th day)?
Answer: The value was “no necrosis, hemorrhage or inflammatory exudates were observed”.

Question: What about the “liver histology (H&E)” value (C57 mice; 140 mg/kg/day, 7th day) of the same molecule?
Answer: Its value is “severely damaged”.

Question: And the “spleen histology (H&E)” value (C57 mice; 140 mg/kg/day, 7th day)?
Answer: Its value is “unchanged”.

Question: And the “CNS(+/−) prediction of blood-brain barrier penetration” value [4]?
Answer: Its value is “CNS+”.

Question: And the Papp at 18 h, 100 μg/mL [4]?
Answer: The Papp at 18 h, 100 μg/mL was 17.8 ± 0.37 ×10⁻⁶ cm/s.

Question: And the IC50 (H9C2 cells)?
Answer: Its IC50 is 375 µM.

Question: What about the improved travelled distance (SD rats [5]) of the same molecule?
Answer: The improved travelled distance was 91.2%.

Question: What about the ROS level [6] of the same molecule?
Answer: The ROS level was 125.0%.

Question: What about the inhibition at 100 µM (5-HT2C receptor; max tested concentration at 100μM) of the same molecule?
Answer: Its inhibition at 100 µM is 66.6%.

Question: Which “fluorescence intensity of free intracellular calcium ion” value [1] does the source give for `COc1ccc2c(c1)C(CCNC(C)=O)=NCC2.O=C(O)C(=O)O` [6a-1, N-(2-(7-Methoxy-3,4-dihydroisoquinolin-1-yl)ethyl) acetamide oxalate] here?
Answer: Its value is “much weaker fluorescence intensity than Fluoxetine and Agomelatine”.

Question: And the GSH level [2]?
Answer: The GSH level was 87.7%.

Question: What about the inhibition at 100 µM (HEK293 cells) of the same molecule?
Answer: The inhibition at 100 µM was less than 20%.

Question: What about the “hippocampal IGF-1 level” value (rat hippocampus) of the same molecule?
Answer: Its value is “neither compound 6a-1 nor Agomelatine exerted any influence”.

Question: And the “hippocampal VEGF level” value (rat hippocampus)?
Answer: The value was “neither compound 6a-1 nor Agomelatine exerted any influence”.

Question: And the “mean immobility time reduced compared to the model group” value (SD rats [3])?
Answer: Its value is 62.5%.

Question: What about the inhibition at 100 µM (L02 cells) of the same molecule?
Answer: Its inhibition at 100 µM is less than 20%.

Question: And the “heart histology (H&E)” value (C57 mice; 140 mg/kg/day, 7th day)?
Answer: Its value is “cardiac myocytes were fragmented and arranged promiscuously”.

Question: What about the “kidney histology (H&E)” value (C57 mice; 140 mg/kg/day, 7th day) of the same molecule?
Answer: Its value is “did not show any significant difference compared with normal”.

Question: What about the “liver histology (H&E)” value (C57 mice; 140 mg/kg/day, 7th day) of the same molecule?
Answer: Its value is “hepatic cords were distinctly clear”.

Question: What about the “lung histology (H&E)” value (C57 mice; 140 mg/kg/day, 7th day) of the same molecule?
Answer: The value was “did not show any significant difference compared with normal”.

Question: And the “spleen histology (H&E)” value (C57 mice; 140 mg/kg/day, 7th day)?
Answer: The value was “unchanged”.

Question: What about the “clinical signs of toxicity” value (C57 mice; intragastric 140 mg/kg/day, 7-day administration) of the same molecule?
Answer: Its value is “No visible clinical signs of toxicity”.

Question: And the “CNS(+/−) prediction of blood-brain barrier penetration” value [4]?
Answer: The value was “CNS+”.

Question: And the Papp at 18 h, 100 μg/mL [4]?
Answer: Its Papp at 18 h, 100 μg/mL is 16.7 ± 0.41 ×10⁻⁶ cm/s.

Question: What about the IC50 (H9C2 cells) of the same molecule?
Answer: The IC50 was 455 µM.

Question: What about the improved travelled distance (SD rats [5]) of the same molecule?
Answer: The improved travelled distance was 131.2%.

Question: What about the ROS level [6] of the same molecule?
Answer: The ROS level was 140.3%.

Question: What about the IC50 (5-HT2C receptor; FLIPR calcium flux, read-out: IC50 5-HT2C antagonism) of the same molecule?
Answer: Its IC50 is greater than 100 µM.

Question: What about the inhibition at 100 µM (5-HT2C receptor) of the same molecule?
Answer: The inhibition at 100 µM was 5.2%.
